The values below come from patent US10568874B2, “Indane-amines as PD-L1 antagonists” (CHEMOCENTRYX, INC., priority 2018, dated 2020).

The assay has as its target human PD-L1 (Homo sapiens (Human), UniProt Q9NZQ7). Kind of assay: Enzyme-Linked Immunosorbent Assay (ELISA), PD-1/PD-L1 binding. The note with it: plate-coated human PD-L1, biotinylated human PD-1. Here is the method:
Plates were coated with 1 μg/mL of human PD-L1 (obtained from R&D) in PBS overnight at 4° C. The wells were then blocked with 2% BSA in PBS (W/V) with 0.05% TWEEN-20 for 1 hour at 37° C. The plates were washed 3 times with PBS/0.05% TWEEN-20 and the samples were diluted to 1:5 in dilution medium in the ELISA plates. Human PD-1 and biotin 0.3 μg/mL (ACRO Biosystems) were added and incubated for 1 hour at 37° C. then washed 3 times with PBS/0.05% TWEEN-20. A second block was added with 2% SA in PBS (W/V)/0.05% TWEEN-20 for 10 min at 37° C. and was washed 3 times with PBS/0.05% TWEEN-20. Streptavidin-HRP was added for 1 hour at 37° C. then washed 3 times with PBS/0.05% TWEEN-20. TMB substrate was added and reacted for 20 min at 37° C. A stop solution (2 N aqueous H2SO4) was added. The absorbance was read at 450 nm using a micro-plate spectrophotometer.
For orientation: In an ELISA, binding on a coated surface is turned into a signal by an enzyme label.

Sequence of human PD-L1 (Q9NZQ7 19-239): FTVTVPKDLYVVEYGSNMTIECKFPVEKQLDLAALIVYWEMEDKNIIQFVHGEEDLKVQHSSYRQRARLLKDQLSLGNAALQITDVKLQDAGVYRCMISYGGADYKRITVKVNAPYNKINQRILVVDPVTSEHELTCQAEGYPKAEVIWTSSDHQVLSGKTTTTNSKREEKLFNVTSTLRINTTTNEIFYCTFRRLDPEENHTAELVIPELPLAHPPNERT

As a reminder, the IC50 is the point on the concentration scale where inhibition reaches its midpoint. With `CCOc1cc(NC2CCc3c(-c4cccc(OCCCN5CCC(F)CC5)c4C)cccc32)c(Cl)cc1CN[C@H]1CCC(=O)NC1` (some centres unmarked), the IC50 lay in the range of 500 to 20000 nM.
`CCOc1cc(NC2CCc3c(-c4cccc(OCCCN5CCC(C)(F)CC5)c4C)cccc32)c(Cl)cc1CN[C@H]1CCC(=O)NC1` (some centres unmarked) returned an IC50 of 500 to 20000 nM.
`CCOc1cc(NC2CCc3c(-c4cccc(OCCCN5CCC(F)CC5)c4C)cccc32)c(Cl)cc1CN[C@@H](CO)C(=O)O` (some centres unmarked): the IC50 is 5 to 500 nM.
For `CCOc1cc(NC2CCc3c(-c4ccccc4F)cccc32)c(Cl)cc1CN[C@@H](CO)C(=O)O` (stereo partly drawn) [(2S)-2-[[5-chloro-2-ethoxy-4-[[4-(2-fluorophenyl)indan-1-yl]amino]phenyl]methylamino]-3-hydroxy-propanoic Acid], the IC50 was in the range of 5 to 500 nM.
`CCOc1cc(NC2CCc3c(-c4cccc(OCCCN5CCC(C)(F)CC5)c4Cl)cccc32)c(Cl)cc1CN1CCC(O)CC1` (centres unmarked) returned an IC50 of 500 to 20000 nM.
Turning to `CCOc1cc(NC2CCc3c(-c4cccc(OCCCN5CCC(C)(F)CC5)c4C)cccc32)c(Cl)cc1CNC[C@@H]1CCC(=O)N1` (some centres unmarked), the IC50 lay within 5 to 500 nM.
`CCOc1cc(NC2CCc3c(-c4cccc(OCCCN5CCC(F)CC5)c4C)cccc32)c(Cl)cc1CNC[C@@H]1CCC(=O)N1` (some centres unmarked) registered an IC50 of 5 to 500 nM.
In turn, `CCOc1cc(NC2CCc3c(-c4cccc(OCCCN5CCC(C)(F)CC5)c4Cl)cccc32)c(Cl)cc1CN[C@H]1CCC(=O)NC1` (some centres unmarked) yielded an IC50 of 500 to 20000 nM.
